One block for each molecule: values may come before it.
Legend:
[1] = test system: Methylobacter chroococcum CRL M6 NRRL B-11,214; assay: Sec. alcohol oxidation by cell suspensions of methanol-grown cells; format: cell-based; details: sec. alcohol to methyl ketone
Description: (§1) In this example, the procedure of Example 1 was repeated except that a plurality of the methane-utilizing methylotrophic microorganisms of the invention were each aerobically grown in a methanol-containing nutrient medium instead of a methane-containing medium. The nutrients in the medium were the same as indicated in Example 1 except that 0.4% v/v methanol was used as the alcohol dehydrogenase enzyme inducer and major source of carbon and energy for growth. Following growth the cells were harvested and washed as described in Example 1. The resting cells of the induced methanol-grown methylotrophic microorganisms were then contacted with a […] under aerobic conditions in a buffered solution by the procedure described in Example 1.

[2] = test system: Methylobacter vinelandii CRL M5Y NRRL B-11,218; assay: as above; format: cell-based; details: sec. alcohol to methyl ketone
Description: as §1

[3] = test system: Methylobacterium organophilum CRL 26 NRRL B-11,222; assay: as above; format: cell-based; details: sec. alcohol to methyl ketone
Description: as §1

[4] = test system: Methylococcus capsulatus CRL M1 NRRL B-11,219; assay: as above; format: cell-based; details: sec. alcohol to methyl ketone
Description: as §1

[5] = test system: Methylocystis parvus CRL 18 NRRL B-11,204; assay: as above; format: cell-based; details: sec. alcohol to methyl ketone
Description: as §1

[6] = test system: Methylomonas methanica CRL M4P NRRL B-11,205; assay: as above; format: cell-based; details: sec. alcohol to methyl ketone
Description: as §1

[7] = test system: Methylosinus trichosporium CRL 15 NRRL B-11,202; assay: as above; format: cell-based; details: sec. alcohol to methyl ketone
Description: as §1

[8] = test system: Candida utilis ATCC 26387; assay: Oxidation of sec-alcohols to ketones by cell suspensions of yeasts; format: cell-based; details: sec-alcohol to methyl ketone
[9] = test system: Hansenula polymorpha ATCC 26012; assay: as above; format: cell-based; details: sec-alcohol to methyl ketone
Pichia sp. NRRL-Y-11328 = assay: as above; format: cell-based; details: sec-alcohol to methyl ketone
[10] = test system: Torulopsis sp. Strain A1 (NRRLY-11,419); assay: as above; format: cell-based; details: sec-alcohol to methyl ketone
[11] = test system: Kloeckera sp. Strain A2 (NRRLY-11,420); assay: as above; format: cell-based; details: sec-alcohol to methyl ketone
[12] = test system: cell extract of Candida utilis ATCC 26,387; assay: Oxidation of secondary alcohols to methylketone by cell extracts of yeasts; format: biochemical; details: methanol-grown; cell extract + NAD^+; sec. alcohol to methyl ketone; gas chromatography
[13] = test system: cell extract of Hansenula polymorpha ATCC 26,012; assay: as above; format: biochemical; details: methanol-grown; cell extract + NAD^+; sec. alcohol to methyl ketone; gas chromatography
[14] = test system: cell extract of Pichia sp. NRRL-Y-11,328; assay: as above; format: biochemical; details: methanol-grown; cell extract + NAD^+; sec. alcohol to methyl ketone; gas chromatography
[15] = test system: cell extract of Torulopsis sp. strain A1 NRRL-Y-11,419; assay: as above; format: biochemical; details: methanol-grown; cell extract + NAD^+; sec. alcohol to methyl ketone; gas chromatography
[16] = test system: cell extract of Kloeckera sp. strain A2 NRRL-Y-11,420; assay: as above; format: biochemical; details: methanol-grown; cell extract + NAD^+; sec. alcohol to methyl ketone; gas chromatography
[17] = test system: purified secondary alcohol dehydrogenase from Pichia sp. NRRL Y-11,328; assay: Substrate specificity, electron acceptor and stoichiometry of purified yeast SADH; format: biochemical; details: examined spectrophotometrically
[18] = test system: Methylocystis parvus (CRL 18 PM4) NRRL B-11,204; assay: Oxidation by washed cell suspensions of methane-grown cells; format: cell-based; details: methane-grown cells; product 2-butanone
Procedure: The pH of the nutrient medium was adjusted to 7.0 by the addition of acid or base and 50 ml samples of the nutrient medium were charged into a plurality of 300 ml shaker flasks. The shaker flasks were inoculated with an inoculating loop of cells from an agar plate containing homogeneous colonies of the microorganisms on the plate (the purity of the isolates was confirmed by microscopic examination. The isolates had been maintained on agar plates under an atmosphere of methane and air having a 1:1 v/v gas ratio which had been transferred evey two weeks. The gaseous phase of the inoculated flasks was then replaced with a gas mixture comprised of methane and air having a ratio of 1:1 on a v/v basis. The inoculated flasks were sealed air tight and were incubated on a rotary shaker of orbital radius 2.5 cm at 250 rpm and at 30° C. for two days until turbidity in the medium had developed.
The cells were harvested by centrifugation at 10,000×g. at 4° C. for 30 minutes. The cell pellet was washed twice with a 0.15 M phosphate buffer at a pH of 7.0 (containing 0.002 M MgCl2). The washed cells were then suspended in a 0.15 M phosphate buffer at pH 7.0.
A 0.5 ml sample of each washed cell suspension (2 mg cells) was put into 10 ml vials at 4° C. which were sealed with a rubber cap. The gaseous phase of the vials was removed with vacuum and then was replaced with a gas mixture of the oxidative substrate (e.g., methane) and oxygen at a 1:1 v/v ratio. The vials were then incubated at 30 ° C. on a rotary shaker at 300 rpm. Samples of product (3 μl) were withdrawn periodically with a microsyringe and the products were analyzed by gas chromatography (ionization flame detector column).
The newly discovered and isolated microorganism strains of the present invention were each grown aerobically in the presence of methane in the manner described above. The methane-grown microbial cells were then washed, recovered and put to use in oxidizing an oxidative substrate by the procedure described above except in the case of a liquid substrate 10 μl of the substrate were used.

oxidation by the purified enzyme [17]: catalyzed the oxidation
Compound: CCCC(C)O (stereo not drawn) [2-Pentanol]
Conversion Rates [1]: 0.08 μmoles/hr/mg protein | Conversion Rates [2]: 0.05 μmoles/hr/mg protein | Conversion Rates [3]: 1.0 μmoles/hr/mg protein | Conversion Rates [4]: 0.24 μmoles/hr/mg protein | Conversion Rates [5]: 0.07 μmoles/hr/mg protein | Conversion Rates [6]: 0.05 μmoles/hr/mg protein | Conversion Rates [7]: 0.09 μmoles/hr/mg protein | Conversion Rate ([8]; growth substrate Ethanol): 1.0 μmoles/hr/mg of protein | Conversion Rate ([8]; growth substrate Methanol): 1.5 μmoles/hr/mg of protein | Conversion Rate ([8]; growth substrate Methylamine): 1.2 μmoles/hr/mg of protein | Conversion Rate ([8]; growth substrate Methylformate): 1.3 μmoles/hr/mg of protein | Conversion Rate ([8]; growth substrate Propylamine): 0.9 μmoles/hr/mg of protein | Conversion Rate ([9]; growth substrate Ethanol): 1.1 μmoles/hr/mg of protein | Conversion Rate ([9]; growth substrate Methanol): 1.4 μmoles/hr/mg of protein | Conversion Rate ([9]; growth substrate Methylamine): 1.2 μmoles/hr/mg of protein | Conversion Rate ([9]; growth substrate Methylformate): 1.3 μmoles/hr/mg of protein | Conversion Rate ([9]; growth substrate Propylamine): 0.82 μmoles/hr/mg of protein | Conversion Rate (Pichia sp. NRRL-Y-11328; growth substrate Ethanol): 1.0 μmoles/hr/mg of protein | Conversion Rate (Pichia sp. NRRL-Y-11328; growth substrate Methanol): 1.2 μmoles/hr/mg of protein | Conversion Rate (Pichia sp. NRRL-Y-11328; growth substrate Methylamine): 0.72 μmoles/hr/mg of protein | Conversion Rate (Pichia sp. NRRL-Y-11328; growth substrate Methylformate): 0.98 μmoles/hr/mg of protein | Conversion Rate (Pichia sp. NRRL-Y-11328; growth substrate Propylamine): 0.60 μmoles/hr/mg of protein | Conversion Rate ([10]; growth substrate Ethanol): 1.2 μmoles/hr/mg of protein | Conversion Rate ([10]; growth substrate Methanol): 1.0 μmoles/hr/mg of protein | Conversion Rate ([10]; growth substrate Methylamine): 0.9 μmoles/hr/mg of protein | Conversion Rate ([10]; growth substrate Methylformate): 1.1 μmoles/hr/mg of protein | Conversion Rate ([10]; growth substrate Propylamine): 0.62 μmoles/hr/mg of protein | Conversion Rate ([11]; growth substrate Ethanol): 1.0 μmoles/hr/mg of protein | Conversion Rate ([11]; growth substrate Methanol): 1.2 μmoles/hr/mg of protein | Conversion Rate ([11]; growth substrate Methylamine): 1.0 μmoles/hr/mg of protein | Conversion Rate ([11]; growth substrate Methylformate): 1.2 μmoles/hr/mg of protein | Conversion Rate ([11]; growth substrate Propylamine): 0.92 μmoles/hr/mg of protein | Conversion Rate [12]: 0.82 μmoles/hr/mg Protein | Conversion Rate [13]: 1.0 μmoles/hr/mg Protein | Conversion Rate [14]: 1.2 μmoles/hr/mg Protein | Conversion Rate [15]: 1.0 μmoles/hr/mg Protein | Conversion Rate [16]: 1.2 μmoles/hr/mg Protein

Compound: CCC(C)=O [Butanone]
Conversion Rate to Ketone [18]: 1.0 μmoles/hr/mg Protein

From patent US4347319A, “Microbiological epoxidation process” (priority 1980, dated 1982)
